Source: ChEMBL document CHEMBL1201862, “PubChem BioAssay data set” (2004)
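96-well plates; 48 h exposure; 5 concentrations. Endpoints by linear interpolation between flanking doses. Not reached: highest tested concentration assigned. Here, GI50 denotes the concentration required for 50% inhibition of growth.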 The source made the active and inactive calls. Rule as the data show it: active = GI50 up to about 1.1 µM and inactive = higher.

Columns and labels:
Experiment in all cases: inhibition of tumour cell growth, NCI panel, 48 h
Malme-3M = tested on: Malme-3M
MCF7 = tested on: MCF7
SK-MEL-2 = tested on: SK-MEL-2
Hs-578T = tested on: Hs-578T
PC-3 = tested on: PC-3
CCRF-CEM = tested on: CCRF-CEM
M14 = tested on: M14
BT-549 = tested on: BT-549
NCI/ADR-RES = tested on: NCI/ADR-RES
SK-OV-3 = tested on: SK-OV-3
786-0 = tested on: 786-0
MDA-MB-435 = tested on: MDA-MB-435
U-251 = tested on: U-251
RXF 393 = tested on: RXF 393
SW-620 = tested on: SW-620
T47D = tested on: T47D
DU-145 = tested on: DU-145
SK-MEL-28 = tested on: SK-MEL-28
A498 = tested on: A498
HOP-92 = tested on: HOP-92

Compound | GI50 (Malme-3M) | GI50 (MCF7) | GI50 (SK-MEL-2) | GI50 (Hs-578T) | GI50 (PC-3) | GI50 (CCRF-CEM) | GI50 (M14) | GI50 (BT-549) | GI50 (NCI/ADR-RES) | GI50 (SK-OV-3) | GI50 (786-0) | GI50 (MDA-MB-435) | GI50 (U-251) | GI50 (RXF 393) | GI50 (SW-620) | GI50 (T47D) | GI50 (DU-145) | GI50 (SK-MEL-28) | GI50 (A498) | GI50 (HOP-92)
O=C(NC(=O)c1ccccc1)OC(c1ccccc1)C1CO1 (stereo unspecified) | > 100 µM (inactive) | > 100 µM (inactive) | > 100 µM (inactive) | > 100 µM (inactive) | > 100 µM (inactive) | > 100 µM (inactive) | > 100 µM (inactive) | > 100 µM (inactive) | > 100 µM (inactive) | > 100 µM (inactive) | > 100 µM (inactive) | > 100 µM (inactive) | > 100 µM (inactive) | > 100 µM (inactive) | > 100 µM (inactive) | > 100 µM (inactive) | > 100 µM (inactive) | > 100 µM (inactive) | – | –
CO[C@H]1C=C[C@]23c4cc5c(cc4CN(CC2O)[C@@H]3C1)OCO5 (stereo partly specified) | 2.15 µM (inactive) | – | 1.08 µM (active) | 2.97 µM (inactive) | 2.39 µM (inactive) | 0.314 µM (active) | 3.3 µM (inactive) | 2.36 µM (inactive) | 4.98 µM (inactive) | 0.388 µM (active) | 1.91 µM (inactive) | 2.81 µM (inactive) | 2.51 µM (inactive) | – | 3.03 µM (inactive) | 1.56 µM (inactive) | 0.668 µM (active) | 2.17 µM (inactive) | 2.06 µM (inactive) | 0.336 µM (active)
Nc1n[n+]([O-])c2cnccc2[n+]1[O-] | > 10 µM (inactive) | > 10 µM (inactive) | > 100 µM (inactive) | > 100 µM (inactive) | 36.1 µM (inactive) | 8.28 µM (inactive) | 22.3 µM (inactive) | 45.2 µM (inactive) | 78 µM (inactive) | > 100 µM (inactive) | 70.6 µM (inactive) | 21.4 µM (inactive) | 58.2 µM (inactive) | – | 38.4 µM (inactive) | 59.7 µM (inactive) | > 100 µM (inactive) | 82.4 µM (inactive) | – | –
c1ccc2c(c1)cc1ccc3cccc4ccc2c1c34 | – | 0.134 µM (active) | > 100 µM (inactive) | > 100 µM (inactive) | > 100 µM (inactive) | > 100 µM (inactive) | > 100 µM (inactive) | > 100 µM (inactive) | > 100 µM (inactive) | > 100 µM (inactive) | > 100 µM (inactive) | > 100 µM (inactive) | > 100 µM (inactive) | > 100 µM (inactive) | > 100 µM (inactive) | > 100 µM (inactive) | > 100 µM (inactive) | > 100 µM (inactive) | – | > 100 µM (inactive)
CN(C(=O)[C@@H](NC(=O)OC(C)(C)C)c1ccccc1)[C@H]1CCCC[C@@H]1N1CCCC1 | – | > 100 µM (inactive) | > 100 µM (inactive) | > 100 µM (inactive) | > 100 µM (inactive) | – | > 100 µM (inactive) | > 100 µM (inactive) | > 100 µM (inactive) | > 100 µM (inactive) | > 100 µM (inactive) | > 100 µM (inactive) | > 100 µM (inactive) | – | > 100 µM (inactive) | > 100 µM (inactive) | > 100 µM (inactive) | > 100 µM (inactive) | > 100 µM (inactive) | –
CCOC(=O)c1nnc2c(C#N)c(-c3ccccc3)c(C)n2c1N | 20.7 µM (inactive) | 39.4 µM (inactive) | 42.4 µM (inactive) | 24.6 µM (inactive) | 82.4 µM (inactive) | 39.7 µM (inactive) | 34.9 µM (inactive) | 40.4 µM (inactive) | 38.8 µM (inactive) | 23.9 µM (inactive) | 56.1 µM (inactive) | 32 µM (inactive) | 38 µM (inactive) | 98.4 µM (inactive) | 40.6 µM (inactive) | 53.7 µM (inactive) | 83.9 µM (inactive) | 21.6 µM (inactive) | 26.8 µM (inactive) | –
Cc1ccc(NC(=O)NC(=O)c2ccc([N+](=O)[O-])cc2[N+](=O)[O-])cc1Oc1ncc(Cl)cn1 | 0.0925 µM (active) | 0.164 µM (active) | – | 0.05 µM (active) | 0.117 µM (active) | 0.292 µM (active) | 0.38 µM (active) | 17.9 µM (inactive) | – | 0.908 µM (active) | 0.466 µM (active) | 0.063 µM (active) | 0.208 µM (active) | 0.175 µM (active) | 0.332 µM (active) | 12.7 µM (inactive) | 0.731 µM (active) | 2.9 µM (inactive) | 0.5 µM (active) | –
N#Cc1ncn(-c2ccccc2)c1N | > 100 µM (inactive) | > 100 µM (inactive) | > 100 µM (inactive) | > 100 µM (inactive) | > 100 µM (inactive) | > 100 µM (inactive) | > 100 µM (inactive) | > 100 µM (inactive) | > 100 µM (inactive) | > 100 µM (inactive) | > 100 µM (inactive) | > 100 µM (inactive) | > 100 µM (inactive) | – | > 100 µM (inactive) | > 100 µM (inactive) | > 100 µM (inactive) | > 100 µM (inactive) | > 100 µM (inactive) | –
